Test [1] deals with High affinity nerve growth factor receptor (Homo sapiens) (UniProt P04629). Put plainly: Binding affinity to wild-type human partial length TRKA (G475 to G790 residues) expressed in mammalian expression system assessed as residual binding level at 10 uM by Kinomescan method relative to control.
Test [2] deals with Phosphatidylinositol 4,5-bisphosphate 3-kinase catalytic subunit alpha isoform (Homo sapiens), P42336 [E545A]. Put plainly: Binding affinity to human partial length PIK3CA E545A mutant (R108 to N1068 residues) expressed in mammalian expression system assessed as residual binding level at 10 uM by Kinomescan method relative to control.
For test [3], the target named is Megakaryocyte-associated tyrosine-protein kinase (Homo sapiens) (UniProt P42679). Put plainly: Binding affinity to wild-type human full length CTK (M43 to P508 residues) expressed in mammalian expression system assessed as residual binding level at 10 uM by Kinomescan method relative to control.
For test [4], the system named is Tyrosine-protein kinase ABL1 (Homo sapiens), P00519 [F317L]. In words: Binding affinity to human phosphorylated ABL1 F317L mutant (S229 to K512 residues) expressed in mammalian expression system assessed as residual binding level at 10 uM by Kinomescan method relative to control.
Sequence of Tyrosine-protein kinase ABL1 (Homo sapiens), P00519 [F317L] (P00519 whole entry F317L, the tested form may be a part): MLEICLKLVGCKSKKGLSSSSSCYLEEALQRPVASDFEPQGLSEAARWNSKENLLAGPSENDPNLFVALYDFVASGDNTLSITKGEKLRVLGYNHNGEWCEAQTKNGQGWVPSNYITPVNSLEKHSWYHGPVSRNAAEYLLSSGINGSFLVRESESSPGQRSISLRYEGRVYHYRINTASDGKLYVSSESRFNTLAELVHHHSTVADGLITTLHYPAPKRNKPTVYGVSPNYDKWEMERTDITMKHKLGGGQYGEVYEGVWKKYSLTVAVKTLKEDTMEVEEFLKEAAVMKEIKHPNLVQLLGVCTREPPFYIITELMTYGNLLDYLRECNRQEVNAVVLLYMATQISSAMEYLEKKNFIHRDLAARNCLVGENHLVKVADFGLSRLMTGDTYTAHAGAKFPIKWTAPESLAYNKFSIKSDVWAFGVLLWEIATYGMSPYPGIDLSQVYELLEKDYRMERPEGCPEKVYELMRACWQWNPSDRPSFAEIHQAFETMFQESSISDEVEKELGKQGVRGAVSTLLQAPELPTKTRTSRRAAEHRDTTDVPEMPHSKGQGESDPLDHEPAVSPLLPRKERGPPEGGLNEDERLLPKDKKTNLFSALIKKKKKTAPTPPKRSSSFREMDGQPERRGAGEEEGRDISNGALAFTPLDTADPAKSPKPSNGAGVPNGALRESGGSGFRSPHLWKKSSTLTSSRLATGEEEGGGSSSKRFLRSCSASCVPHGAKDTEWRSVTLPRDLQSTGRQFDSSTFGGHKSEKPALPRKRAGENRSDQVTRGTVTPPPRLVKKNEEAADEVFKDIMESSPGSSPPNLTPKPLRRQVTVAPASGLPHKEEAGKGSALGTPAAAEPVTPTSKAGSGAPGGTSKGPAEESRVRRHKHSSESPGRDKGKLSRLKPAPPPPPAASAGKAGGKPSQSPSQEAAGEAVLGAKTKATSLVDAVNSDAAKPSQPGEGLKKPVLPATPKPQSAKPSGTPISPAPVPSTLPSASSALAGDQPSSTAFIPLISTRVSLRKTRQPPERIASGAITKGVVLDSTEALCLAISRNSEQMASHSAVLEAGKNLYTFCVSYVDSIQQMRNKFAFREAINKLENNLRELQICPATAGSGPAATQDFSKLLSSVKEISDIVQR
The target in test [5] is Glycogen synthase kinase-3 beta (Homo sapiens) (UniProt P49841). Put plainly: Binding affinity to wild-type human full length GSK3B (M1 to T433 residues) expressed in mammalian expression system assessed as residual binding level at 10 uM by Kinomescan method relative to control.
Sequence of Glycogen synthase kinase-3 beta (Homo sapiens) (P49841 whole entry, looked up, the tested form may be a part): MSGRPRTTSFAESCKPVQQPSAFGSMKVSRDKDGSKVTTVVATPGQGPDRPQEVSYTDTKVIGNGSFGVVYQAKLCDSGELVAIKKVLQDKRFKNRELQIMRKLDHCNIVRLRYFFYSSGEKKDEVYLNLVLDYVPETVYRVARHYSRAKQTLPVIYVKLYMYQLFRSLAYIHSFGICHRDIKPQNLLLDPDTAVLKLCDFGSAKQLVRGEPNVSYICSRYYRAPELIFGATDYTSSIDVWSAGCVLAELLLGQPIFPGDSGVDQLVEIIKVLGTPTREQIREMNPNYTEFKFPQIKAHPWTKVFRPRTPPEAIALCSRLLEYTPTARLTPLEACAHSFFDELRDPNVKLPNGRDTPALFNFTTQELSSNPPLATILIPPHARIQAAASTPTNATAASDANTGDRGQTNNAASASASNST
For test [6], the target named is AP2-associated protein kinase 1 (Homo sapiens) (UniProt Q2M2I8). Put plainly: Binding affinity to human wild-type AAK1 (G25 to L333 residues) expressed in bacterial expression system assessed as residual binding level at 10 uM by Kinomescan method relative to control.
Test [7] has as its target TGF-beta receptor type-2 (Homo sapiens) (UniProt P37173). In words: Binding affinity to wild-type human partial length TGFBR2 (I218 to K567 residues) expressed in bacterial expression system assessed as residual binding level at 10 uM by Kinomescan method relative to control.
Test [8] addresses Serine/threonine-protein kinase tousled-like 1 (Homo sapiens) (UniProt Q9UKI8). In words: Binding affinity to wild-type human partial length TLK1 (K447 to A754 residues) expressed in bacterial expression system assessed as residual binding level at 10 uM by Kinomescan method relative to control.
Test [9] has as its target Cyclin-dependent kinase 11A (Homo sapiens) (UniProt Q9UQ88). Put plainly: Binding affinity to wild-type human partial length CDC2L2 (D391 to K730 residues) expressed in bacterial expression system assessed as residual binding level at 10 uM by Kinomescan method relative to control.
For test [10], the target named is TRAF2 and NCK-interacting protein kinase (Homo sapiens) (UniProt Q9UKE5). Put plainly: Binding affinity to wild-type human partial length TNIK (D4 to K311 residues) expressed in bacterial expression system assessed as residual binding level at 10 uM by Kinomescan method relative to control.
The target in test [11] is Acetylcholinesterase (Homo sapiens, UniProt P22303). Put plainly: Inhibition of human recombinant AChE using ATCh as substrate preincubated for 20 mins followed by substrate addition and measured for 3 mins by Ellman method.
In test [12] the target is Tyrosine-protein kinase Fgr (Homo sapiens) (UniProt P09769). Put plainly: Binding affinity to wild-type human partial length FGR (L233 to T529 residues) expressed in bacterial expression system assessed as residual binding level at 10 uM by Kinomescan method relative to control.
The target of test [13] is Dual specificity mitogen-activated protein kinase kinase 5 (Homo sapiens) (UniProt Q13163). Put plainly: Binding affinity to wild-type human partial length MEK5 (L98 to P448 residues) expressed in mammalian expression system assessed as residual binding level at 10 uM by Kinomescan method relative to control.
Sequence of Dual specificity mitogen-activated protein kinase kinase 5 (Homo sapiens) (Q13163 whole entry, the tested form may be a part): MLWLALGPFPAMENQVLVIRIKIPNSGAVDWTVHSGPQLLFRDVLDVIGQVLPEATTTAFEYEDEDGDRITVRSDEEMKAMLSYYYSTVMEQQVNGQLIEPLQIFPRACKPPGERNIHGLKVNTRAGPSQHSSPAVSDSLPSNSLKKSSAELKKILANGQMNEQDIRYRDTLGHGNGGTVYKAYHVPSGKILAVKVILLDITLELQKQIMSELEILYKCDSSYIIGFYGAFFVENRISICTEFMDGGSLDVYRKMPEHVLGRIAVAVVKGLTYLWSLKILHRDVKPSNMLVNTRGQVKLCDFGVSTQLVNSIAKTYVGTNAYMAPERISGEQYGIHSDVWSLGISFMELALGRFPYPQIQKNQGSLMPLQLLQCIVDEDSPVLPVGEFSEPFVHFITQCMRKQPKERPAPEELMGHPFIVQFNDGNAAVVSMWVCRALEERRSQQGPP
Test [14] concerns the target Platelet-derived growth factor receptor alpha (Homo sapiens) (UniProt P16234). In words: Binding affinity to wild-type human partial length PDGFRA (V575 to D1002 residues) expressed in mammalian expression system assessed as residual binding level at 10 uM by Kinomescan method relative to control.
In test [15] the target is Serine/threonine-protein kinase DCLK1 (Homo sapiens) (UniProt O15075). In words: Binding affinity to wild-type human partial length DCAMKL1 (L270 to A662 residues) expressed in mammalian expression system assessed as residual binding level at 10 uM by Kinomescan method relative to control.
Sequence of Serine/threonine-protein kinase DCLK1 (Homo sapiens) (O15075 whole entry, the tested form may be a part, canonical isoform): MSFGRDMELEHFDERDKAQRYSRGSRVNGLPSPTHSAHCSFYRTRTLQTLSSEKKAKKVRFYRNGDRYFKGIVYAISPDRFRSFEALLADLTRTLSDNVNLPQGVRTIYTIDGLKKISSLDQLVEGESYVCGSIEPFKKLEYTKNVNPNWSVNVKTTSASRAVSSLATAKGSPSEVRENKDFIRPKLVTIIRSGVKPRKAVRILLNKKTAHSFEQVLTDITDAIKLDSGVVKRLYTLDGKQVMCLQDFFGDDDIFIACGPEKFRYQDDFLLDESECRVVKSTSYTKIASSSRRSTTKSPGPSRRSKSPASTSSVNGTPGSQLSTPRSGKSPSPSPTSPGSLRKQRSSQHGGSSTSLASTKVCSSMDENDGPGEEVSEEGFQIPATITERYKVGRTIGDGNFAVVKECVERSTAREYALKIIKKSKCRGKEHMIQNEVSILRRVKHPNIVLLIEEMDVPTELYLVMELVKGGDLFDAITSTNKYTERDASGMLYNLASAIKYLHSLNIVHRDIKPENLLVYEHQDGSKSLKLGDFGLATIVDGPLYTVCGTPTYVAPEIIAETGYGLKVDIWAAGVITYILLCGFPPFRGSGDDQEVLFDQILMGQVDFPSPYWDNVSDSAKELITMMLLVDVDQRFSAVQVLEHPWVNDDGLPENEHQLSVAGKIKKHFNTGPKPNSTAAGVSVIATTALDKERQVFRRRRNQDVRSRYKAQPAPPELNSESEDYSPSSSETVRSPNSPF
Test [16] addresses Phosphorylase b kinase gamma catalytic chain, liver/testis isoform (Homo sapiens) (UniProt P15735). In words: Binding affinity to wild-type human partial length PHKG2 (M1 to W300 residues) expressed in bacterial expression system assessed as residual binding level at 10 uM by Kinomescan method relative to control.
Test [17] concerns the target Serine/threonine-protein kinase BRSK2 (Homo sapiens) (UniProt Q8IWQ3). In words: Binding affinity to wild-type human full length BRSK2 (M1 to L674 residues) expressed in bacterial expression system assessed as residual binding level at 10 uM by Kinomescan method relative to control.
Test [18] has as its system Fibroblast growth factor receptor 3 (Homo sapiens), P22607 [G697C]. In words: Binding affinity to human partial length FGFR3 G697C mutant (R442 to S771 residues) expressed in bacterial expression system assessed as residual binding level at 10 uM by Kinomescan method relative to control.
The target in test [19] is Serine/threonine-protein kinase PAK 2 (Homo sapiens) (UniProt Q13177). Put plainly: Binding affinity to wild-type human partial length PAK2 (P151 to R525 residues) expressed in bacterial expression system assessed as residual binding level at 10 uM by Kinomescan method relative to control.
The target of test [20] is Serine/threonine-protein kinase 10 (Homo sapiens) (UniProt O94804). Put plainly: Binding affinity to wild-type human partial length LOK (E16 to V314 residues) expressed in bacterial expression system assessed as residual binding level at 10 uM by Kinomescan method relative to control.
Test [21] concerns the target Serine/threonine-protein kinase 32A (Homo sapiens) (UniProt Q8WU08). In words: Binding affinity to wild-type human full length YANK1 (M1 to L396 residues) expressed in mammalian expression system assessed as residual binding level at 10 uM by Kinomescan method relative to control.
For test [22], the system named is Receptor-type tyrosine-protein kinase FLT3 (Homo sapiens), P36888 [D835V]. In words: Binding affinity to human partial length FLT3 D835V mutant (V592 to Y969 residues) expressed in bacterial expression system assessed as residual binding level at 10 uM by Kinomescan method relative to control.
The target of test [23] is Serine/threonine-protein kinase mTOR (Homo sapiens) (UniProt P42345). In words: Binding affinity to wild-type human partial length MTOR (L1382 to W2549 residues) expressed in mammalian expression system assessed as residual binding level at 10 uM by Kinomescan method relative to control.
Test [24] concerns the target Protein kinase C eta type (Homo sapiens) (UniProt P24723). In words: Binding affinity to wild-type human partial length PRKCH (S324 to P683 residues) expressed in bacterial expression system assessed as residual binding level at 10 uM by Kinomescan method relative to control.

Among the data in ChEMBL document CHEMBL4390652, “Design, biological evaluation and X-ray crystallography of nanomolar multifunctional ligands targeting simultaneously acetylcholinesterase and glycogen synthase kinase-3” (Eur J Med Chem, 2019) are Activity and IC50 values, retold here.

Sequence of Protein kinase C eta type (Homo sapiens) (P24723 whole entry, the tested form may be a part): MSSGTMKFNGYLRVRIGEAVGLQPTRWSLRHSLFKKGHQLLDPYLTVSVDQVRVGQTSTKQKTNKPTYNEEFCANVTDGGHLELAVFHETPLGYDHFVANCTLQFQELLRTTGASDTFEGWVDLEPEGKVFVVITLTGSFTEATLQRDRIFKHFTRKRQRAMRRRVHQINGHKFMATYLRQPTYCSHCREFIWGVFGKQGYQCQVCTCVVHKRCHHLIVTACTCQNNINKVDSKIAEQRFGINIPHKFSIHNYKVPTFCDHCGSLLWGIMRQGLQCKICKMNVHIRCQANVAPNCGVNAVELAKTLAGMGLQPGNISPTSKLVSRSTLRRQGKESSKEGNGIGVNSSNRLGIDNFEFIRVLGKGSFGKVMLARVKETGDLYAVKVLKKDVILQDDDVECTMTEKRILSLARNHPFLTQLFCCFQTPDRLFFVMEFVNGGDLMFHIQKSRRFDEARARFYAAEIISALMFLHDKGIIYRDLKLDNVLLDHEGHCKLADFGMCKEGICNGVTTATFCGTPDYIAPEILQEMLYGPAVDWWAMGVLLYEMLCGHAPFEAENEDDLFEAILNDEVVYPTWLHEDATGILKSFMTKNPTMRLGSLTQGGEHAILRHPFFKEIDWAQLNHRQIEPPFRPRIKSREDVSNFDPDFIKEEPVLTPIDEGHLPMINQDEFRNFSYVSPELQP
Sequence of Phosphorylase b kinase gamma catalytic chain, liver/testis isoform (Homo sapiens) (P15735 whole entry, the tested form may be a part, canonical isoform): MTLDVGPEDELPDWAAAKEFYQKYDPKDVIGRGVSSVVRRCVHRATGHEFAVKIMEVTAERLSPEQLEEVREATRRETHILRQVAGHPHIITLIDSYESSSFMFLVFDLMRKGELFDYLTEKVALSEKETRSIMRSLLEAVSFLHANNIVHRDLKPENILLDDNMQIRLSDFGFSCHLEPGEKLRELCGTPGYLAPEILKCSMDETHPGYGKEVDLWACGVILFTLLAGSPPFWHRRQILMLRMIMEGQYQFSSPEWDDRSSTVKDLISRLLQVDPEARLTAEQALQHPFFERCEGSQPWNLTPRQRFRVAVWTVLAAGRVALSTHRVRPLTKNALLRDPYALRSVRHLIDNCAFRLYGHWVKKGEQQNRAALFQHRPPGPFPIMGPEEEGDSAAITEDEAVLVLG
Sequence of Serine/threonine-protein kinase tousled-like 1 (Homo sapiens) (Q9UKI8 whole entry, the tested form may be a part): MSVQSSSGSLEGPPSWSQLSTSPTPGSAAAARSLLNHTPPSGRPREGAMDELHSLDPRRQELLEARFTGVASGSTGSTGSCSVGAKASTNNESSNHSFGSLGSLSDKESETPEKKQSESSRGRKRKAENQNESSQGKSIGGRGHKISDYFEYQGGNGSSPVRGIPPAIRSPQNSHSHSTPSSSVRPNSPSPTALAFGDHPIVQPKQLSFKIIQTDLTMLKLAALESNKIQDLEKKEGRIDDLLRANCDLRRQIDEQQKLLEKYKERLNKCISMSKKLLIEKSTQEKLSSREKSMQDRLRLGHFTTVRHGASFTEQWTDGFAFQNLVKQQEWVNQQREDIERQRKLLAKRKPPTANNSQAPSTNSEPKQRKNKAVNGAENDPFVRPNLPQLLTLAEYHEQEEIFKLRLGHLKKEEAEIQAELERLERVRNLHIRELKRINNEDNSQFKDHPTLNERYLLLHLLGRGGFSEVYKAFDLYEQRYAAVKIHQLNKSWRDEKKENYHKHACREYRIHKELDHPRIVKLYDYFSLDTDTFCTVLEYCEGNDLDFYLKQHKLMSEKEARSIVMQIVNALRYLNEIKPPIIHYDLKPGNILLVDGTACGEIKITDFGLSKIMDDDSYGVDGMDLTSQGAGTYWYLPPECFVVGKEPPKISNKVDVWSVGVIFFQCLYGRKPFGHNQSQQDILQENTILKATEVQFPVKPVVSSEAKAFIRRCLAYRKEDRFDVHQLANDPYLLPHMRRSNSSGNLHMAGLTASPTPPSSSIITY
Sequence of Serine/threonine-protein kinase 32A (Homo sapiens) (Q8WU08 whole entry, the tested form may be a part): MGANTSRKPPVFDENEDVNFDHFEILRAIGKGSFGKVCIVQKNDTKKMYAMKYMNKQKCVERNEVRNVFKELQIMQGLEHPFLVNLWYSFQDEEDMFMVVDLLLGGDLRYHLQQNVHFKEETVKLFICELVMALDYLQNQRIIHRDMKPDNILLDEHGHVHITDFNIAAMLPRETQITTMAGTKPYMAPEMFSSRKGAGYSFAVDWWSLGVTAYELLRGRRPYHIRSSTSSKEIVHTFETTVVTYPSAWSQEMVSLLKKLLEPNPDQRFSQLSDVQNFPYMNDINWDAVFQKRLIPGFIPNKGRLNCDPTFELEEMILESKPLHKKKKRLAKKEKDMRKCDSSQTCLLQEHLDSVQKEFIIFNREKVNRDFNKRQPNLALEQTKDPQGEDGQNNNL

What is called IC50 is the point on the concentration scale where inhibition reaches its midpoint. On to `O=C(Nc1cc(-c2cn(CCNc3c4c(nc5ccccc35)CCCC4)nn2)ccn1)Nc1cccc2c1C1CCCCN1C2=O` (racemic), for which the Activity in test [1] came to 8.6%; in test [2], 72%; in test [3] it was 100%; in [4], 20%; in test [5] it was 17%; in test [6], 13%. Besides, the Activity in [7] was determined as 19%; in test [8], 51%; in [9], 99%; in test [10], 48%; in test [12] it was 97%; in [13] it was 1.6%. The Activity in [14] was 22%; in test [15], 82%; in test [16], 50%; in [17], 70%; in test [18] it was 40%; in [19] it was 34%. In addition, the Activity in test [20] is 99%; in [21], 95%; in test [22] it was 0.04%; in test [23], 100%; in [24] it was 3.9%. In addition, the IC50 in test [11] came to 11.4 nM.
